This note sets out measurements from ChEMBL document CHEMBL4406853 (Eur J Med Chem, 2019).

SMILES strings stand for the structures.

The target in assay [1] is T1, Mu-type opioid receptor (Homo sapiens, UniProt P35372). Nature of the assay: Inhibition of mu opioid receptor (unknown origin) expressed in HEK293 cells assessed as inhibition of forskolin-stimulated intracellular cAMP accumulation preincubated for 30 mins followed by forskolin-stimulation and measured after 60 mins. The class given is functional, cell-based.
For assay [2], the target named is T1, Mu-type opioid receptor. In words: Inhibition of mu opioid receptor (unknown origin) expressed in HEK293 cells assessed as inhibition of forskolin-stimulated […] preincubated for 30 mins followed by forskolin-stimulation and measured after 60 mins. The class given is cell-based.
Assay [3] deals with Mus musculus. In words: Antinociceptive activity in icv dosed Kunming mouse. As to conditions: central. The class given is functional.
For assay [4], the target named is T1, Mu-type opioid receptor. In words: Displacement of [3H]DAMGO from mu opioid receptor (unknown origin) expressed in HEK293 cells after 1 hr by liquid scintillation counting. The class given is cell-based.
For assay [5], the system named is Mus musculus. Nature of the assay: Antinociceptive activity in iv dosed Kunming mouse. The class given is functional.
Assay [6] relates to Mus musculus. Nature of the assay: Antinociceptive activity in icv dosed mouse. The class given is functional.
Assay [7] deals with T2, Kappa-type opioid receptor (Homo sapiens, UniProt P41145). In words: Inhibition of kappa opioid receptor (unknown origin) by [35S]-GTPgammaS binding assay. The class given is functional.
Assay [8] has as its target T2, Kappa-type opioid receptor. Nature of the assay: Inhibition of kappa opioid receptor (unknown origin) in presence of DAMGO by [35S]-GTPgammaS binding assay. The class given is functional.
For assay [9], the target named is T1, Mu-type opioid receptor. In words: Inhibition of mu opioid receptor (unknown origin) in presence of DPDPE by [35S]-GTPgammaS binding assay. The class given is functional.
Assay [10] deals with T3, Delta-type opioid receptor (Homo sapiens, UniProt P41143). Nature of the assay: Inhibition of delta opioid receptor (unknown origin) in presence of DPDPE by [35S]-GTPgammaS binding assay relative to control. The class given is functional.
Assay [11] addresses T2, Kappa-type opioid receptor. In words: Inhibition of kappa opioid receptor (unknown origin) in presence of DPDPE by [35S]-GTPgammaS binding assay relative to control. The class given is functional.
Assay [12] deals with T1, Mu-type opioid receptor. In words: Inhibition of mu opioid receptor (unknown origin) in presence of DAMGO by [35S]-GTPgammaS binding assay. The class given is functional.
In assay [13] the target is T3, Delta-type opioid receptor. In words: Inhibition of delta opioid receptor (unknown origin) in presence of DAMGO by [35S]-GTPgammaS binding assay relative to control. The class given is functional.
Assay [14] addresses T1, Mu-type opioid receptor. Nature of the assay: Inhibition of mu opioid receptor (unknown origin) in presence of DPDPE by [35S]-GTPgammaS binding assay relative to control. The class given is functional.
The target in assay [15] is T3, Delta-type opioid receptor. Nature of the assay: Inhibition of delta opioid receptor (unknown origin) in presence of DPDPE by [35S]-GTPgammaS binding assay. The class given is functional.
For assay [16], the target named is T3, Delta-type opioid receptor. Nature of the assay: Inhibition of delta opioid receptor (unknown origin) in presence of DAMGO by [35S]-GTPgammaS binding assay. The class given is functional.
Assay [17] concerns the target T2, Kappa-type opioid receptor. Nature of the assay: Inhibition of kappa opioid receptor (unknown origin) in presence of DPDPE by [35S]-GTPgammaS binding assay. The class given is functional.
In assay [18] the target is T2, Kappa-type opioid receptor. In words: Inhibition of kappa opioid receptor (unknown origin) in presence of DAMGO by [35S]-GTPgammaS binding assay relative to control. The class given is functional.
In assay [19] the target is T2, Kappa-type opioid receptor. In words: Binding affinity to kappa opioid receptor (unknown origin).

T3 sequence (P41143 whole entry): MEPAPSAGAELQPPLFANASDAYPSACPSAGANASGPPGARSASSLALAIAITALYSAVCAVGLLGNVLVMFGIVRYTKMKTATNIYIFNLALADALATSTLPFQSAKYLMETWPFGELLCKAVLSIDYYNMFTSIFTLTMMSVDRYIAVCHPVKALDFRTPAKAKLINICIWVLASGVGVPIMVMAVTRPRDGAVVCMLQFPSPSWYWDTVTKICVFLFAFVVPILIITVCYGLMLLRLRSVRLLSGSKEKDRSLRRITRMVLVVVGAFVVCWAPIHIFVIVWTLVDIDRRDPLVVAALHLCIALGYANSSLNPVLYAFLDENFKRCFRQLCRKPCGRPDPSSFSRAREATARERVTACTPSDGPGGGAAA
T2 sequence (P41145 whole entry): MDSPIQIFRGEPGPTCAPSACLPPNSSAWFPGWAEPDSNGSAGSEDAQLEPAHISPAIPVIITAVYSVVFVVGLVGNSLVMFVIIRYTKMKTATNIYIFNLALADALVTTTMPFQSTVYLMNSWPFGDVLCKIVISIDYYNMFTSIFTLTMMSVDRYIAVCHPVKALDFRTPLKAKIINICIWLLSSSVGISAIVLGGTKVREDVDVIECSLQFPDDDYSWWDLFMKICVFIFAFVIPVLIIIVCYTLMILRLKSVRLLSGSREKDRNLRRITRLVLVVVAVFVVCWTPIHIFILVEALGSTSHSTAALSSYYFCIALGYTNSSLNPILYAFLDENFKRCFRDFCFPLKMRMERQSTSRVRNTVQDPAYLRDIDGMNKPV
T1 sequence (P35372 whole entry): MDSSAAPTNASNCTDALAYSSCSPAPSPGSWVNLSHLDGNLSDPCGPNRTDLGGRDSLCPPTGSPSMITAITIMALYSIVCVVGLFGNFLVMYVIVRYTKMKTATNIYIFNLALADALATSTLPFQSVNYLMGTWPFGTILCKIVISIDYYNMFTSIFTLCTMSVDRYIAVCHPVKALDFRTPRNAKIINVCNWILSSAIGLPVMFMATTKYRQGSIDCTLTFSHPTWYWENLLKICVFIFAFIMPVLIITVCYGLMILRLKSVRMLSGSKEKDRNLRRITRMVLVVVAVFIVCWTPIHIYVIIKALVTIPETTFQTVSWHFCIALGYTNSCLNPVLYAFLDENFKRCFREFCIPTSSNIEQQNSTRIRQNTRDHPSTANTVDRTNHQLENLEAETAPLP

With `CN(C)[C@H](CNC(=O)NCCc1ccsc1)Cc1ccc2ccccc2c1`, the concentration for a half-maximal effect (EC50) at Mu-type opioid receptor [1] and on Mu-type opioid receptor [2] was 52.4 to 243 nM each time.

In turn, `C=C(C(N)=O)C(NC(=O)[C@H](Cc1c[nH]c2ccccc12)NC(=O)[C@@H](C)N(C)C(=O)C(N)Cc1c(C)cc(O)cc1C)c1ccco1` (stereo partly drawn) registered an ED50 with Mus musculus [3] of 0.0152 µmol/kg. For the same compound, on Mu-type opioid receptor [4], the EC50 is 0.00177 to 0.00515 nM and the Ki lay in the range of 0.0109 to 0.0511 nM. In the assay on Mus musculus [5], the ED50 is 0.000382 µmol/kg.

Compound `Oc1cccc(CCN(CCc2ccccc2)CC2CC2)c1` returned an ED50 with Mus musculus [6] of 6.02 nmol. For the same compound, the concentration for a half-maximal effect (EC50) in assay [7] was 36.7 nM.

As to `CN(C)[C@H](CNC(=O)NCCc1cccs1)Cc1cccc2ccccc12`, the EC50 at Mu-type opioid receptor [1] and at Mu-type opioid receptor [2] was 52.4 to 91.1 nM in each case.

`CN(C)[C@H](CNC(=O)NCCc1ccsc1)Cc1cccc2ccccc12`: the EC50 on Mu-type opioid receptor [1] and at Mu-type opioid receptor [2] was 203 nM throughout.

In the case of `CC[C@@H]1CN2CC[C@]3(Nc4cccc(-c5ccccc5)c4C3=O)[C@@H]2C[C@@H]1/C(=C\OC)C(=O)OC`, the EC50 (in [8]; at Mu-type opioid receptor [9]; at Mu-type opioid receptor [12]; in assay [15]; in assay [16]; in assay [17]) was 1.4 nM throughout. Moreover, the Emax (in assay [10]; in assay [11]; in assay [13]; at Mu-type opioid receptor [14]; in [18]) was 123% throughout.

At Mu-type opioid receptor [4], `C=C(C(N)=O)C(NC(=O)[C@H](Cc1c[nH]c2ccccc12)NC(=O)[C@@H](C)N(C)C(=O)C(N)Cc1c(C)cc(O)cc1C)c1ccccc1` (stereo partly drawn) had an EC50 of 0.00177 to 0.00515 nM and a Ki of 0.0109 to 0.0511 nM.

`C=C(C(N)=O)C(NC(=O)[C@H](Cc1ccccc1)NC(=O)[C@@H](C)N(C)C(=O)C(N)Cc1c(C)cc(O)cc1C)c1ccco1` (stereo partly drawn) had an ED50 in the assay on Mus musculus [3] of 0.0226 µmol/kg. On Mu-type opioid receptor [4], this compound registered an EC50 of 0.00177 to 0.00515 nM and a Ki of 0.0109 to 0.0511 nM. This compound also had an ED50 with Mus musculus [5] of 0.000489 µmol/kg.

Take `C[C@@H](Cc1ccsc1)NC(=O)NC[C@H](Cc1ccc2ccccc2c1)N(C)C`: the EC50 at Mu-type opioid receptor [1] and at Mu-type opioid receptor [2] was 52.4 to 91.1 nM each time.

In the case of `C=C(C(N)=O)C(NC(=O)[C@H](Cc1ccccc1)NC(=O)[C@@H](C)N(C)C(=O)[C@@H](N)Cc1ccc(O)cc1)c1ccccc1` (stereo partly drawn), on Mu-type opioid receptor [4], the EC50 was determined as 4 nM.

For `CC[C@@H]1CN2CC[C@]3(Nc4cccc(OC)c4C3=O)[C@@H]2C[C@@H]1/C(=C\OC)C(=O)OC`, the EC50 (in [8]; at Mu-type opioid receptor [9]; at Mu-type opioid receptor [12]; in [15]; in assay [16]; in assay [17]) was 1.7 nM in each case. For the same compound, the half-inhibitory concentration (IC50) in [8] is 132 nM; at Mu-type opioid receptor [9], 0.282 nM; on Mu-type opioid receptor [12], 6.61 nM; in assay [15], 1.26 nM; in assay [16], 1.7 nM; in assay [17] it was 132 nM. The Emax (in [10]; in assay [11]; in assay [13]; on Mu-type opioid receptor [14]; in [18]) was 82% in each case.

For `C=C(C(N)=O)C(NC(=O)[C@H](Cc1c[nH]c2ccccc12)NC(=O)[C@@H](C)N(C)C(=O)[C@@H](N)Cc1ccc(O)cc1)c1ccco1` (stereo partly drawn), on Mu-type opioid receptor [4], the EC50 fell in the range of 1.45 to 39 nM.

For `C[C@@H](Cc1ccsc1)NC(=O)NC[C@H](Cc1cccc2ccccc12)N(C)C`, the EC50 at Mu-type opioid receptor [1] and at Mu-type opioid receptor [2] was 456 nM each time.

For `C[C@H](Cc1ccsc1)NC(=O)NC[C@H](Cc1ccc2ccccc2c1)N(C)C`, the EC50 on Mu-type opioid receptor [1] and at Mu-type opioid receptor [2] was 52.4 to 91.1 nM each time.

As for `Oc1cccc(CCN(CCc2ccccc2)CC2CCC2)c1`, the ED50 in the assay with Mus musculus [6] was 3.74 nmol.

On Mu-type opioid receptor [4], `C=C(C(N)=O)C(NC(=O)[C@H](Cc1ccccc1)NC(=O)[C@@H](C)N(C)C(=O)C(N)Cc1c(C)cc(O)cc1C)c1ccccc1` (stereo partly drawn) displayed a half-maximal effective concentration (EC50) of 0.00177 to 0.00515 nM and a Ki of 0.0109 to 0.0511 nM.

As to `COC(=O)[C@@H]1C[C@H](OC(=O)CSC#N)C(=O)[C@H]2[C@@]1(C)CC[C@H]1C(=O)O[C@H](c3ccoc3)C[C@]21C` [22-THIOCYANATOSALVINORIN A], binding in assay [19] was characterised by a dissociation constant (Kd) of 0.59 nM.
